From patent US11117931B2, “Antimicrobial peptide derived from Hp1404 peptide and uses thereof” (priority 2017, dated 2021)
Where no end group is shown, it is not given here.

How the values were obtained:
S. aureus (ATCC 25923) = assay: Anti-biofilm activity (crystal violet); type: cell-based, Staphylococcus aureus; settings: 24 hours at 37° C.
Experimental: To compare the antimicrobial activity among the peptides produced by the method of Example 1, the inventors of the present invention measured the biofilm inhibitory concentration value of the peptide showing no dissociation of bacterial cells.
Specifically, among the bacterial strains described in the above Table 2, bacteria showing favorable biofilm forming were cultured to a mid-log phase in each medium. Then, after dilution to bacterial cell concentration of 5×10^4 cells/100 μl, the cells were inoculated to a microtiter plate (PSL). Thereafter, Hp1404, Hp1404-T1c, Hp1404-T1d or Hp1s404-T1e peptide which has been synthesized in Example 1 above was diluted, 1/10 times for each, with 10 mM sodium phosphate (pH 7.2) solution in a 96-well plate. After adding the cells (10 μl) to a plate, the cells were cultured for 24 hours at 37° C. After removing the supernatant completely, the cells were fixed with 100% methanol for 15 minutes and reacted for 1 hour with Crystal violet staining solution followed by rinsing for 3 times. Then, after dissolving in 95% ethanol, the absorbance was measured at a wavelength of 595 nm by using a microtiter plate reader to determine the biofilm minimal inhibitory concentration value of each bacterial strain.

[1] = Stability against trypsin enzyme (RP-HPLC); type: in vitro ADME; settings: 20 nM trypsin, 37° C., read-out: amount of remaining peptide; for remaining at 1 h, 200 μg/mL: reaction for 1 hour; for remaining at 2 h, 200 μg/mL: reaction for 2 hours
Experimental: To determine whether or not the peptides prepared by the method of Example 1 have stability against an enzyme, RP-HPLC (reverse-phase HPLC) was carried out. Specifically, 20 μg of the peptide was reacted with 100 μl of trypsin at concentration of 20 nM for 1 to 2 hours at 37° C. After the reaction, 20 μl of the reaction product was applied to RP-HPLC, and the amount of remaining peptide was examined.

E. coli = assay: MIC, E. coli; type: cell-based, Escherichia coli; settings: E. coli (ATCC 25922), 18 hours at 37° C.
Description: To compare the antimicrobial activity among the peptides produced by the method of Example 1, the inventors of the present invention measured the minimal growth inhibitory concentration (MIC), which is minimum concentration of the peptide showing no dissociation of bacterial cells.
Specifically, the bacterial strain described in the following Table 2 was purchased and cultured to a mid-log phase in each medium with a composition suitable for each strain. Then, after dilution to bacterial cell concentration of 2×10^4 cells/100 μl, the cells were inoculated to a microtiter plate (NUNC, USA). Thereafter, Hp1404-T1, Hp1404-T1a, Hp1404-T1b, Hp1404-T1c, Hp1404-T1d or Hp1404-T1e peptide which has been synthesized in Example 1 above was subjected to serial dilution, ½ times for each, with BSA (bovine serum albumin) solution in a 96-well plate. After adding the cells to a plate, the cells were cultured for 18 hours at 37° C. By using a microtiter plate reader (Merck Elisa reader, Germany), the absorbance was measured at a wavelength of 600 nm to determine the MIC value of each bacterial strain. As a control group, Hp1404 as a mother peptide was used.

[2] = system: erythrocytes of a mouse (Balb/c); assay: Hemolytic activity; type: cell-based
Experimental: To compare the cytotoxicity among the peptides that are produced by the method of Example 1, erythrocyte hemolytic activity of the synthesized peptide was measured.
Specifically, erythrocytes of a mouse (Balb/c, 6 week old, female) were diluted in physiological saline (PBS, pH 7.0) to have concentration of 8%, and then subjected to a treatment with Hp1404, Hp1404-T1, Hp1404-T1a, Hp1404-T1b, Hp1404-T1c, Hp1404-T1d or Hp1404-T1e, each at concentration of 6.25, 12.5, 25.0, 50.0, 100.0 and 200.0 μM/well, respectively, followed by a reaction for 1 hour at 37° C. After that, the amount of hemoglobin contained in a supernatant collected by centrifuge at 1,000×g was determined by measuring the absorbance at a wavelength of 414 nm. As a control group to be used as a reference for cell disruption level, the supernatant collected by a treatment with 1% Triton X-100 (Sigma, USA) and a reaction for 1 hour at 37° C. was used to measure the absorbance. By setting the resulting absorbance value at 100%, the hemolytic activity of each peptide was calculated using the following mathematical formula 1. Erythrocyte disrupting ability (hemolysis) (%)=(Absorbance A−Absorbance B)/(Absorbance C−Absorbance B)×100 [Mathematical formula 1] (in the above formula, Absorbance A indicates the absorbance of a reaction solution treated with each peptide, in which the absorbance is measured at a wavelength of 414 nm; Absorbance B indicates the absorbance of a reaction solution treated with PBS, in which the absorbance is measured at a wavelength of 414 nm; and Absorbance C indicates the absorbance of a reaction solution treated with 1% Triton X-100, in which the absorbance is measured at a wavelength of 414 nm).

[3] = system: lipopolysaccharide (LPS) isolated from P. aeruginosa; assay: Binding ability between lipopolysaccharide (LPS) and peptide; settings: peptide at 1×MIC
Experimental: By using the peptides prepared by the method of Example 1, binding to lipopolysaccharide (LPS), which is a constitutional component of a cell wall of Gram-negative bacteria, was examined. LPS used in the present invention was isolated from P. aeruginosa. Lipopolysacchride (0 to 100 μg/ml) was diluted with 10 mM sodium phosphate buffer (pH 7.2), reacted with each peptide at a concentration of 1× or 2×MIC, and then cultured with the bacteria at 2×10^5 CFU/ml. By measuring the absorbance at 600 nm, the binding ability to the peptide was determined. Additionally, after reacting 0.1% […] with the peptide (40 μM) in an incubator, the secondary structure was examined by circular dichroism (CD) spectroscopy.

[4] = system: S. aureus or P. aeruginosa membrane; assay: Flow cytometry with propidium iodide; type: cell-based; settings: 2×MIC, 1 hour at 37° C.
Experimental: Specifically, S. aureus or P. aeruginosa was treated for 1 hour at 37° C. with the mother peptide Hp1404, or Hp1404-T1c, Hp1404-T1d or Hp1404-T1e peptide (at concentration of 2×MIC). After that, the supernatant was removed by centrifuge (10,000 rpm) and stained with propidium iodide (PI, concentration of 10 μg/ml) for 30 minutes at 4° C. Thereafter, unbound propidium iodide was removed by centrifuge, and the problem of cell aggregation phenomenon was solved by adding physiological saline (PBS) in an amount of 1 ml.

| Substance | Biofilm minimal inhibitory concentration (S. aureus (ATCC 25923)) [µM] | remaining at 1 h, 200 μg/mL [1] [%] | remaining at 2 h, 200 μg/mL [1] [%] | Minimal inhibitory concentration (E. coli) [µM] | Erythrocyte disrupting ability ([2]; peptide concentration 6.25 μM) [%] | Erythrocyte disrupting ability ([2]; peptide concentration 12.5 μM) [%] | Erythrocyte disrupting ability ([2]; peptide concentration 25 μM) [%] | Erythrocyte disrupting ability ([2]; peptide concentration 50 μM) [%] | Erythrocyte disrupting ability ([2]; peptide concentration 100 μM) [%] | Erythrocyte disrupting ability ([2]; peptide concentration 200 μM, 1 hour at 37° C., relative to 1% Triton X-100) [%] | binding to LPS, rank order [3] | propidium iodide fluorescence signal shift (membrane damage) [4] |
| --- | --- | --- | --- | --- | --- | --- | --- | --- | --- | --- | --- | --- |
| GILGKLWEGVKSIF-NH2 [Hp1404] | 3.13 | 60 | 45 | 6.25 | 0.01 | 2.16 | 11.01 | 55.41 | 92.64 | 100 | binding to LPS increases in order of Hp1404-T1e, Hp1404-T1d, Hp1404-T1c, and Hp1404 | bacteria membrane was damaged |
| ILKKLLKKVKKI-NH2 [Hp1404-T1e] | 12.5 | ≥ 80 | 80 | >25 | 0.10 | 0.28 | 0.41 | 0 | 0.15 | – | binding to LPS increases in order of Hp1404-T1e, Hp1404-T1d, Hp1404-T1c, and Hp1404 | no such shift of fluorescence signal |
| ILKKLLKKVKSI-NH2 [Hp1404-T1d] | 6.25 | ≥ 80 | 80 | >25 | 0 | 0 | 0 | 0 | 0 | – | binding to LPS increases in order of Hp1404-T1e, Hp1404-T1d, Hp1404-T1c, and Hp1404 | no such shift of fluorescence signal |
